Legend:
[1] = test system: human DNA topoisomerase IIα; test: Agarose gel-based human DNA topoisomerase IIα mediated DNA cleavage assay; type: biochemical; details: 50 μM etoposide, increasing topoisomerase IIα, FIG. 8A
Method: (§1) FIGS. 8A-8C. […] Fluorescence intensity was measured using a Biotek microplate reader with excitation wavelength of 497 nm and emission wavelength of 525 nm.
DNA Gyrase and Human DNA Topoisomerase IIα Mediated DNA Cleavage Assay.
250 ng of relaxed plasmid pBR322 and 20 nM of E. coli DNA gyrase or human DNA topoisomerase IIα were mixed and incubated in 1×gyrase-mediated DNA cleavage buffer (20 mM Tris-HCl pH 8, 50 mM KAc, 10 mM MgCl2, 2 mM DTT, 1 mM ATP, 0.1 mg/mL BSA) at 37° C. for 15 minutes in the presence of an inhibitor or compound. After the incubation, 0.2% SDS and 0.1 mg/ml proteinase K were added to the reaction mixtures to trap the topoisomerase-inhibitor-DNA complex and digest the topoisomerase, respectively, by incubating for an additional 30 min at 37° C. DNA samples were analyzed in 1% agarose gel containing […] ethidium bromide in 1′TAE buffer and photographed under UV light. […] Etoposide was used as a positive control for human DNA topoisomerase IIα-mediated DNA cleavage assays.

[2] = test system: human DNA topoisomerase IIα; test: Fluorescence-based DNA cleavage assay for human DNA topoisomerase IIα (T5 exonuclease digestion, SYBR Green staining); type: biochemical; details: 50 μM etoposide, […] human TopoIIα, FIG. 8C
Method: as §1

- fluorescence difference between presence and absence of compound (in words) [2]: significant fluorescence difference
SMILES: COc1cc([C@@H]2c3cc4c(cc3[C@@H](O[C@@H]3O[C@@H]5CO[C@@H](C)O[C@H]5[C@H](O)[C@H]3O)[C@H]3COC(=O)[C@H]23)OCO4)cc(OC)c1O [etoposide]
- linear and nicked plasmid DNA products (in words) [1]: progressive increase in the linear and nicked plasmid DNA products

Source: patent US12234504B1 (priority 2023, dated 2025)
